Experimental data published in patent publication US20070265307A1, “Administration of 4-aminopiperidine compounds for inducing and/or stimulating the growth of keratin fibers and/or preventing loss thereof” (L'OREAL, priority 2006, published 2007).

Tested on: normal human fibroblasts
Test: Dermodecontracting effect: spontaneous contraction of attached dermal equivalents (collagen matrix seeded with normal human fibroblasts)
Type: cell-based
Conditions: dermal equivalent, contraction kinetics 0, 4, 8 and 24 hours
Description: The principle of this test entails studying the effect of the test product on a model of dermal equivalent consisting of a collagen matrix seeded with normal human fibroblasts.
These conditions are suited to mimic, in vitro, the dermal contractile phenomena that occur during facial expressions. Under these conditions, in fact, the cells spontaneously express tensile forces which induce a retraction of the collagen gel. […] The measurement of this surface area makes it possible to evaluate the relaxing effects of the substances brought into contact beforehand with the dermal equivalent.
[…] The experiment is repeated three times.
The dermal equivalents are prepared as described in Asselineau et al., Exp. Cell. Res., 1985,159, 536-539; Models in Dermatology, 1987, vol. 3 pp 1-7, in the following proportions: […]
The collagen used is collagen type I (commercial solution). It is extracted from rat tail or from calf skin by acid hydrolysis and stored in an acidic medium at +4° C.; it polymerizes naturally by heating at 37° C. and by decreasing the degree of acidity. […]
For this, a digital image is acquired for each treated or non-treated dermal equivalent by means of a camera (Camera CCD-Iris Sony DXC-107P) and the surface area is then calculated on each image by means of an image analysis system (Zeiss Axiovision 3.0). […]

| SMILES | reduction of the fibroblast contraction, on average over the duration of the experiment, compared with the control (tested at 1 μM) | reduction of the fibroblast contraction, on average over the duration of the experiment, compared with the control (tested at 10 μM) |
| --- | --- | --- |
| c1ccc(CCCNC2CCN(CCc3ccccc3)CC2)cc1 [Compound No. 1, 1-(2-phenylethyl)-4-[N-(3-phenylpropyl)]aminopiperidine] | 21% |  |
| CC(NC1CCN(CCc2ccccc2)CC1)c1ccccc1 (centres unmarked) [Compound No. 5, 1-(2-phenylethyl)-4-[N-(1-phenyl-ethyl)]aminopiperidine] |  | 40% |
